Drawing on patent publication US9573939B2, “Substituted benzofuran compounds and methods of use thereof for the treatment of viral diseases” (priority 2011, dated 2017), this text covers IC50 for 8 molecules.

In one test the test system is HCV replicon genotype 1a. As to the kind of experiment: microbe, parasite or virus in culture. Format: cell-based. Particulars: Hepatitis C virus; HCV genotype 1a replicon cells; 96 hours incubation; replicon-encoded NS3/4A protein by ELISA; percentage of DMSO control. In general terms: Replicon systems follow genome replication, usually without infectious particles.
In the next test the test system is HCV replicon genotype 1b. The test can be described thus: microbe, parasite or virus in culture. Format: cell-based. Particulars: Hepatitis C virus; HCV genotype 1b replicon cells; 96 hours incubation; replicon-encoded NS3/4A protein by ELISA; percentage of DMSO control.

A value given as a limit tells only on which side of the number the result lay.

For orientation: IC50 means the midpoint of a concentration-inhibition curve.

Regarding `CNC(=O)c1c(-c2ccc(F)cc2)oc2cc(N(C)S(C)(=O)=O)c(-c3ncc4ncn(-c5ccc(C#N)cc5)c4n3)cc12` [Compound 32], the IC50 with HCV replicon genotype 1a is more than 1000 nM. As for `CNC(=O)c1c(-c2ccc(F)cc2)oc2cc(N(C)S(C)(=O)=O)c(-c3ccc4cnn(-c5ccc(Cl)cc5)c4c3)cc12` [Compound 52], the IC50 in the test with HCV replicon genotype 1b amounted to 6.9 nM; with HCV replicon genotype 1a, 6 nM. For `CNC(=O)c1c(-c2ccc(F)cc2)oc2cc(N(C)S(C)(=O)=O)c(-c3ncc4ncn(-c5ccc(OC(F)(F)F)cc5)c4n3)cc12` [Compound 29, 2-(4-fluorophenyl)-N-methyl-6-(N-methylmethylsulfonamido)-5-(9-(4-(trifluoromethoxy)phenyl)-9H-purin-2-yl)benzofuran-3-carboxamide], in the test on HCV replicon genotype 1a, the IC50 is more than 1000 nM.

On to `CNC(=O)c1c(-c2ccc(F)cc2)oc2cc(N(C)S(C)(=O)=O)c(-c3ccc4c(c3)ncn4-c3ccccc3)cc12` [Compound 22], for which the IC50 in the test on HCV replicon genotype 1b came out at 2.9 nM; in the test on HCV replicon genotype 1a, 25.3 nM.

In the test on HCV replicon genotype 1a, `CNC(=O)c1c(-c2ccc(F)cc2)oc2cc(N(C)S(C)(=O)=O)c(-c3ccc4c(c3)ncn4-c3cccnc3)cc12` [Compound 23] displayed an IC50 of 24.1 nM.

`CNC(=O)c1c(-c2ccc(F)cc2)oc2cc(N(C)S(C)(=O)=O)c(-c3ccc4ncn(CCO)c4c3)cc12` [Compound 28]: the IC50 in the test on HCV replicon genotype 1b was found to be 75.7 nM; with HCV replicon genotype 1a, 755 nM. The matching figures for `CNC(=O)c1c(-c2ccc(F)cc2)oc2cc(N(C)S(C)(=O)=O)c(-c3ccc4ncn(-c5ccc(F)cc5)c4c3)cc12` [Compound 15]: 20.2 nM and 338 nM. With `CNC(=O)c1c(-c2ccc(F)cc2)oc2cc(N(C)S(C)(=O)=O)c(-c3ccc4[nH]c(-c5ccccc5)cc4c3)cc12` [Compound 39], the IC50 in the test with HCV replicon genotype 1a is more than 1000 nM.
